Test results as given in US20150217004A1, “CARBAMATE COMPOUNDS AND METHODS OF USE IN DISEASES OF THE NERVOUS SYSTEM” (priority 2012, published 2015).

Key:
BuChE = test: In vitro autoradiography with human tissues (Alzheimer's disease or cognitively normal); format: binding; details: 3.7 MBq, 18 hours at 37° C., maleate buffer pH 6.8, FIG. 3
Description: Human tissue from Alzheimer's disease or cognitively normal individuals was obtained from the Maritime Brain Tissue Bank (Halifax, Canada). These tissues were adjacent […] sections through areas such as the orbitofrontal cortex. The tissues were mounted on glass slides, in maleate buffer pH 6.8, and gently heated on a slide warmer until firmly adhered. The mounted tissue was rehydrated twice for 5 min, in maleate buffer pH 6.8, before placed in a coplin jar. Nine sections occupied each jar. 25 mL of maleate buffer pH 6.8 containing Phenyl 4-([^123I]iodo)phenylcarbamate (3.7 MBq) was added to the coplin jar and the tissue incubated for 18 hours at 37° C. with gentle agitation. At the completion of incubation, the tissue was rinsed twice for 1 min in distilled water and the slides dried on a slide wanner. The tissue was exposed to a high resolution phosphorimaging screen (GE Healthcare) for 22.5 hours. The screen was scanned with a typhoon 9400 imager (GE Healthcare) to produce the autoradiogram. Image contrast was adjusted with Adobe Photoshop CS5.

human serum BuChE = biological target: T1, human serum BuChE (Homo sapiens, UniProt P06276); test: Esterase activity assay (Ellman), enzyme deactivation over time, BuChE; format: biochemical; details: FIG. 2
T1 construct: 0.05 units of purified human serum BuChE; from tissue; host or cells: human serum
Description: (§1) The ability of the compounds to inhibit cholinesterases was evaluated by Ellman's spectrophotometric method (Ellman, G. L., Courtney, K. D., Andres, V. Jr. and Featherstone, R. M. A new and rapid colorimetric determination of acetylcholinesterase activity. Biochemical Pharmacology, 7, 88-95 (1961)) using human recombinant AChE and. acetylthiocholine as the substrate, and human serum BuChE with butyrylthiocholine as the substrate.
(§2) To test for enzyme deactivation over time, loss of enzyme activity was monitored. Briefly, 1.35 mL of buffered DTNB solution (pH 8.0), 0.05 mL of enzyme (0.03 units of human recombinant AChE or 0.05 units of purified human serum BuChE in 0.1% aqueous gelatin containing 0.01% sodium azide) and 0.05 mL of the carbamate dissolved in 50% aqueous acetonitrile at 0.5-5 mM, depending on solubility, were combined in a stoppered cuvette of 1 cm path length. After mixing and bringing the absorbance to zero, 0.05 mL of 4.8 mM aqueous acetyl- or butyrylthiocholine substrate solution was added to the cuvette after incubation of the enzyme with carbamate and buffered DTNB for periods of 30 min or longer. A zero-time sample was also obtained by adding enzyme last to initiate reaction and the second-order rate constants for enzyme deactivation (ka values) were determined. The ka value was calculated by plotting ln (e0/et)/[I] against time, where e0 is the enzymatic activity at time zero (without preincubation of enzyme and inhibitor), et is the enzymatic activity at time t min of preincubation, and [I] is the molar concentration of inhibitor. The slope of this plot gave the second-order rate constant. Experiments were generally done at least in triplicate and the values averaged.

human recombinant AChE = human recombinant AChE (Homo sapiens, UniProt P22303); test: Esterase activity assay (Ellman), enzyme deactivation over time, AChE; format: biochemical; details: FIG. 2
Description: as §1, §2

T1 sequence (P06276 29-602): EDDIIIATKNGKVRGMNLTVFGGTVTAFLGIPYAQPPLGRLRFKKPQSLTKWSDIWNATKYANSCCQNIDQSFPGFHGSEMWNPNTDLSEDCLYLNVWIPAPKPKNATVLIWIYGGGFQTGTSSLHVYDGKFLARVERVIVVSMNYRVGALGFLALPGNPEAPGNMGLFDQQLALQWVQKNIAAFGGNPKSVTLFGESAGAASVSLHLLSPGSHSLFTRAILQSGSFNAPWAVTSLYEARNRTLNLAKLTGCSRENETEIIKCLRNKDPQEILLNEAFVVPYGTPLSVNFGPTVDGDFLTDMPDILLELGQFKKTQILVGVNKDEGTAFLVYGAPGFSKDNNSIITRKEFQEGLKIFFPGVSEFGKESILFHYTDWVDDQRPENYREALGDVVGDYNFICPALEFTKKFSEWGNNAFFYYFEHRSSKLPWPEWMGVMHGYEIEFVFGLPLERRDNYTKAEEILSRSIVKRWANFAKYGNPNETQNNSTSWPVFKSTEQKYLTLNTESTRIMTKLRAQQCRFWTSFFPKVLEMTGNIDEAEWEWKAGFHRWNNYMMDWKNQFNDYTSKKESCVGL
human recombinant AChE, sequence (P22303 32-614): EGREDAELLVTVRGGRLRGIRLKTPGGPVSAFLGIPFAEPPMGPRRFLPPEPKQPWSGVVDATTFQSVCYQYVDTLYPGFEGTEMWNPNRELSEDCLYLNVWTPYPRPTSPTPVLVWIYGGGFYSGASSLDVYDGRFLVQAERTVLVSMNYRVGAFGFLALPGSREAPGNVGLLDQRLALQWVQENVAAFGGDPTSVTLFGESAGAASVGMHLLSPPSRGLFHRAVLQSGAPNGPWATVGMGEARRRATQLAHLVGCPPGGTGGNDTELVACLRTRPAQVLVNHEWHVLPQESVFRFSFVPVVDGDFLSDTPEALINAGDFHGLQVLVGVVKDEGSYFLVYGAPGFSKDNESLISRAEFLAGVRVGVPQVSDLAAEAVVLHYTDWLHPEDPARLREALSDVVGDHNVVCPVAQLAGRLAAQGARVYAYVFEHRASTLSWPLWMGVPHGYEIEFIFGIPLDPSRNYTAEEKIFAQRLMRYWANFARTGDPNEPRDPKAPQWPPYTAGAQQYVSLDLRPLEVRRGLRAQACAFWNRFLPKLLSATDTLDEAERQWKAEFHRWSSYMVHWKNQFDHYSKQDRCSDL

Structure (SMILES): O=C(Nc1ccc([123I])cc1)Oc1ccccc1 [Phenyl 4-([^123I]iodo)phenylcarbamate]
- autoradiography: distinction of normal, normal-with-Aβ-plaques and AD brain tissue (BuChE): normal-with-Aβ-plaques and AD brain tissue can be distinguished

Structure (SMILES): O=C(Nc1ccc(F)cc1)Oc1ccccc1
- melting point: 160 to 161 °C

Structure (SMILES): O=C(Nc1ccc(I)cc1)Oc1ccccc1 [phenyl 4-(iodo)phenylcarbamate, Phenyl 4-(iodo)phenylcarbamate]
- effect on esterase activity (inhibition) (human serum BuChE): clearly has inhibitory effects
- persistence of interaction (ligand bound to enzyme) (human serum BuChE): persisted for hours
- rate of enzymatic deactivation (human serum BuChE): proceeded rapidly
- effect on esterase activity (inhibition) (human recombinant AChE): clearly has inhibitory effects
- persistence of interaction (ligand bound to enzyme) (human recombinant AChE): persisted for hours
- rate of enzymatic deactivation (human recombinant AChE): proceeded rapidly
